Experiment [1] concerns DU145. Briefly: Western analysis. The experiment is classed as cell-based, human. Conditions: 5 uM Los, 25 uM U0126, 20 uM PD98059, 250 μM AICAR.
Experiment [2] deals with DU145. Nature of the experiment: Western analysis. The experiment is classed as cell-based, human. Conditions: for PAX2 expression / phospho-PAX2 protein levels / phospho-JNK protein levels: DU145; for PAX2 expression / phospho-PAX2 protein levels: 5 uM Los, 25 uM U0126, 20 uM PD98059, 250 μM AICAR. The procedure: . Following a 15 minute incubation period at 4° C. on an orbital shaker, cell lysate were then collected and centrifuged for 10 minutes at 12000×g to pellet cellular debris. The protein-containing supernatant were then collected and quantitated. Next, 25 μg protein extract was loaded onto an 8-16% gradient SDS-PAGE (Novex). Following electrophoresis, proteins were transferred to PVDF membranes, and then blocked with 5% nonfat dry milk in TTBS (0.05% Tween 20 and 100 mM Tris-Cl) for 1 hour. Blots were then probed with rabbit anti-PAX2 primary antibody (Zymed, San Francisco, Calif.) at a 1:2000 dilution. After washing, the membranes were incubated with anti-rabbit antibody conjugated to horseradish peroxidase (HRP) (dilution 1:5000; Sigma), and signal detection was visualized using chemilluminescence reagents (Pierce) on an Alpha Innotech Fluorchem 8900. As a control, blots were stripped and reprobed with mouse anti-β-actin primary antibody (1:5000; Sigma-Aldrich) and HRP-conjugated anti-mouse secondary antibody (1:5000; Sigma-Aldrich) and signal detection was again visualized.
Following a 15-minute incubation period at 4° C. on an orbital shaker, cell lysates were collected and centrifuged for 10 minutes at 12000×g to pellet cellular debris. The protein-containing supernatant were then collected and quantitated. Next, 25 ug protein extract was loaded onto an 8-16% gradient SDS-PAGE (Novex). Following electrophoresis, proteins were transferred to PVDF membranes, and then blocked with 5% nonfat dry milk in TTBS (0.05% Tween 20 and 100 mM Tris-Cl) for 1 hour. Blots were then probed with primary antibody (anti-PAX2, -phospho-PAX2, -JNK, -phospho-JNK, -ERK1/2, or -phospho-ERK1/2) (Zymed, San Francisco, Calif.) at 1:1000-2000 dilutions. After washing, the membranes were incubated with anti-rabbit antibody conjugated to horseradish peroxidase (HRP) (dilution 1:5000; Sigma), and signal detection was visualized using chemilluminescence reagents (Pierce) on an Alpha Innotech Fluorchem 8900. As a control, blots were stripped and re-probed with mouse anti-β-actin primary antibody (1:5000; Sigma-Aldrich) and HRP-conjugated anti-mouse secondary antibody (1:5000; Sigma-Aldrich), and signal detection was again visualized.
. Following a 15-min incubation period at 4° C. on an orbital shaker, cell lysates were collected and centrifuged for 10 min at 12,000 g to pellet cellular debris. The protein-containing supernatant were then collected and quantitated. Next, 25 μg protein extract was loaded onto an 8-16% gradient SDS-PAGE (Novex). Following electrophoresis, proteins were transferred to PVDF membranes, and then blocked with 5% non-fat dry milk in TTBS (0.05% Tween 20 and 100 mM Tris-Cl) for 1 h. Blots were then probed with rabbit anti-PAX2 primary antibody (Zymed, San Francisco, Calif.) at a 1:1000 dilution. After washing, the membranes were incubated with anti-rabbit antibody conjugated to horseradish peroxidase (HRP) (dilution 1:5000; Sigma), and signal detection was visualized using chemiluminescence reagents (Pierce) on an Alpha Innotech Fluorchem 8900. As a control, blots were stripped and reprobed with mouse anti-β-actin primary antibody (1:5000; Sigma-Aldrich) and HRP-conjugated anti-mouse secondary antibody (1:5000; Sigma-Aldrich), and signal detection was again visualized.

Experiment [3] deals with human prostate cancer cells. Conditions: xenograft models of human prostate cancer cells; cited from earlier work.
In experiment [4] the test system is DU145. Briefly: Quantitative RT-PCR of gene expression. The experiment is classed as cell-based, human. Conditions: for PAX2 message levels: DU145, Losartan (FIG. 20A).
Description: Total RNA was isolated using the SV Total RNA Isolation System (Promega). Briefly, approximately 1×10^6 cells were harvested by trypsinizing, and rinsed in PBS. Cells were then lysed and total RNA was isolated by centrifugation through spin columns. Total RNA (0.5 μg per reaction) was reverse transcribed into cDNA utilizing Oligo (dT) 15 primer (Promega) and AMV Reverse Transcriptase II enzyme (500 units per reaction; Promega) for first strand synthesis and Tfl DNA Polymerase for second strand synthesis (500 units per reaction; Promega) as per the manufacturers' protocol, with identical control samples treated without RT enzyme. Typically, 50 pg of each cDNA was used per ensuing PCR reaction Two-step QRT-PCR was performed on cDNA generated using the MultiScribe Reverse Transcripatase from the TaqMan Reverse Transcription System and the SYBR Green PCR Master Mix (PE Biosystems). […] Reactions were performed in MicroAmp Optical 96-well Reaction Plate (PE Biosystems). Forty cycles of PCR were performed under standard conditions using an annealing temperature of 60° C. Quantification was determined by the cycle number where exponential amplification began (threshold value) and averaged from the values obtained from the triplicate repeats. There was an inverse relationship between message level and threshold value. In addition, GAPDH was used as a housekeeping gene to normalize the initial content of total cDNA. […] All reactions were carried out in triplicate.
Forty cycles of PCR were performed under standard conditions using an annealing temperature of 56° C. In addition, GAPDH was amplified as a housekeeping gene to normalize the initial content of total cDNA. […] All reactions were run three times in triplicate.
The subject of experiment [5] is DU145. Nature of the experiment: [3H] thymidine incorporation proliferation. The experiment is classed as cell-based, human. Conditions: for effect of AngII on proliferation after Los pre-treatment: DU145, Los 30 min prior to AngII; for increase in proliferation: 72 hours. How it is done:
Reagents and Treatments: […] Thymidine Incorporation: Proliferation of cells was determined by [3H] thymidine […] ([3H] TdR) incorporation into DNA. 0.5×10^6 cells/well of suspension DU145 cells were plated in their appropriate media. Cells were incubated for 72 h with or without the presence of AngII at the indicated concentrations. Cells were exposed to 37 kBq/ml [methyl-3H] thymidine in the same medium for 6 h. The adherent cells were fixed by 5% trichloroacetic acid and lysed in SDS/NaOH lysis buffer overnight. Radioactivity was measured by Beckman LS3801 liquid scintillation counter (Canada). Suspension cell culture was harvested by cell harvester (Packard instrument Co., Meriden, Conn.), and radioactivity was measured by 1450 microbeta liquid scintillation counter (PerkinElmer Life Sciences).

The next experiment has as its system HPrEC. Nature of the experiment: Quantitative RT-PCR of gene expression. The experiment is classed as cell-based, human. Conditions: for decrease in DEFB1 expression compared to untreated hPrEC / increase in PAX2 expression compared to untreated hPrEC: 10 uM AngII; for PAX2 expression as % of PAX2 levels in PC3: AngII. How it is done:
RNA Isolation and Quantitative RT-PCR: In order to verify changes in DEFB1 expression levels RNA was collected after 4 days of PAX2 siRNA treatment. Briefly, total RNA was isolated using the SV Total RNA Isolation System (Promega, Madison, Wis.) from approximately 1×10^6 cells harvested by trypsinizing. Here, cells were lysed and total RNA was isolated by centrifugation through spin columns. Total RNA (0.5 μg per reaction) from both sources was reverse transcribed into cDNA utilizing random primers (Promega). AMV Reverse Transcriptase II enzyme (500 units per reaction; Promega) was used for first strand synthesis and Tfl DNA Polymerase for second strand synthesis (500 units per reaction; Promega) as per the manufacturer's protocol. In each case, 50 pg of cDNA was used per ensuing PCR reaction. Two-step QRT-PCR was performed on cDNA generated using the MultiScribe Reverse Transcripatase from the TaqMan Reverse Transcription System and the SYBR Green PCR Master Mix (Applied Biosystems).
The primer pair for DEFB1 was generated from the published DEFB1 sequence (Accession No. U50930). Forty cycles of PCR were performed under standard conditions using an annealing temperature of 56° C. In addition, GAPDH was amplified as a housekeeping gene to normalize the initial content of total cDNA. DEFB1 expression was calculated as the relative expression ratio between DEFB1 and GAPDH and was compared in cells lines before and after siRNA knock-down of PAX2 expression. All reactions were run three times in triplicate.
QRT-PCR Analysis: Quantitative real-time RT-PCR was performed to verify changes in gene expression following PAX2 knockdown in PC3 and DU145 prostate cancer cell lines and the hPrEC normal prostate epithelial cells. Approximately 1×10^6 cells were harvested by trypsinizing and the cells were rinsed in PBS. Cells were then lysed and total RNA was isolated by centrifugation through spin columns using the SV Total RNA Isolation System (Promega). cDNA was generated (0.5 μg per reaction) by reverse transcription by Oligo (dT) 15 primer (Promega) and AMV Reverse Transcriptase II enzyme (500 units per reaction; Promega) for first strand synthesis and Tfl DNA Polymerase for second strand synthesis (500 units per reaction; Promega) as per the manufacturer's protocol. Typically, 50 pg of each cDNA was used per ensuing PCR reaction. Two-step QRT-PCR was performed on cDNA generated using the MultiScribe Reverse Transcripatase from the TaqMan Reverse Transcription System and the SYBR Green PCR Master Mix (PE Biosystems). Reactions were performed in MicroAmp Optical 96-well Reaction Plate (PE Biosystems). Forty cycles of PCR were performed under standard conditions using an annealing temperature of 60° C. Quantification was determined by the cycle number where exponential amplification began (threshold value) and averaged from the values obtained from the triplicate repeats. There was an inverse relationship between message level and threshold value. In addition, GAPDH was used as a housekeeping gene to normalize the initial content of total cDNA. Relative expression was calculated as the ratio between each genes and GAPDH. All reactions were carried out in triplicate.
RNA isolation and quantitative RT-PCR: QRT-PCR was performed as previously described (Gibson et al., 2007). Briefly, total RNA (0.5 μg per reaction) from tissue sections were reverse transcribed into cDNA utilizing random primers (Promega). Two-step QRT-PCR was performed on cDNA generated using the MultiScribe Reverse Transcriptase from the TaqMan Reverse Transcription System and the SYBR Green PCR Master Mix (Applied Biosystems, Foster City, Calif.). The primer pairs for hBD-1 and c-MYC were generated from the published sequences (Table 7). Forty cycles of PCR were performed under standard conditions using an annealing temperature of 56.4° C. for hBD-1 and c-MYC and 55° C. for PAX2. […]

The mark [6] stands for this setting: AngII 72 and 96 hours (FIG. 25 legend).

“Also recorded” adds a separate entry of the source.

For the compound `NC(=O)c1ncn([C@@H]2O[C@H](CO)[C@@H](O)[C@H]2O)c1N` [AICAR, 5-Aminoimidazole-4-carboxamide-1-β-4-ribofuranoside], the phospho-STAT3 protein levels result in the experiment with DU145 [1] is “also suppressed”. In the experiment on DU145 [2], the PAX2 expression entry is “suppresses PAX2 protein expression; also recorded: suppressed PAX2 expression; also recorded: suppression of PAX2 pression expression” and the phospho-PAX2 protein levels result was “suppression”.
For `N#CC(=C(/N)Sc1ccccc1N)/C(C#N)=C(\N)Sc1ccccc1N` [Drug U0126], the phospho-STAT3 protein levels entry in the experiment on DU145 [1] is given as “reduced phospho-STAT3 protein levels”. Besides, in the experiment on DU145 [2], the phospho-JNK protein levels result is “did not decrease”, the PAX2 expression entry is “significant reduction of PAX2 expression” and the phospho-PAX2 protein levels entry is given as “significant decrease or suppression”.
Consider `CCCCc1nc(Cl)c(CO)n1Cc1ccc(-c2ccccc2-c2nn[nH]n2)cc1` [Losartan], for which the phospho-STAT3 protein levels entry with DU145 [1] is “suppresses phospho-STAT3 protein expression”; in the experiment on DU145 [1] (listed as Los), “reduced phospho-STAT3 protein levels”. In experiment [3], the “tumor growth and vascularization” value was “reduce tumor growth and vascularization”. Moreover, the ERK protein levels entry with DU145 [2] (DU145, 5 uM Los) is given as “no effect”. The phospho-ERK entry in the experiment with DU145 [2] (DU145, 5 uM Los) was “suppresses phosphor-ERK 1/2”; in the experiment on DU145 [2] (DU145, 5 uM Los, listed as Los) it was “reduced the amount of phospho-ERK”. In addition, the PAX2 expression entry in the experiment on DU145 [2] is on record as “suppresses”; with DU145 [2] (listed as Los), “significant reduction of PAX2 expression”. In addition, the phospho-PAX2 protein levels entry in the experiment on DU145 [2] was “significant decrease or suppression”. Also, the “PAX2 expression compared to untreated control” value in the experiment on DU145 [4] (DU145, 5 uM Los, 72 hours) is recorded as 50%. Further, the PAX2 message levels result in the experiment with DU145 [4] was “decreased by at least half”; with DU145 [4] (listed as Los) it was “significantly reduced PAX2 expression”. The compound further came in with a decrease in proliferation with DU145 [5] (DU145, 5 μM Losartan) of 50%. The “effect of AngII on proliferation after Los pre-treatment” value is “blocked the effect of AngII on proliferation” in the experiment with DU145 [5] and “suppressed the effect of AngII on proliferation” with DU145 [5] (listed as Los).
For `COc1cccc(-c2cc(=O)c3ccccc3o2)c1N` [PD98059], the phospho-STAT3 protein levels result in the experiment with DU145 [1] is on record as “reduced phospho-STAT3 protein levels”. For the same compound, in the experiment on DU145 [2], the PAX2 expression entry was “decreased PAX2” and the phospho-PAX2 protein levels result was “significant decrease or suppression”.
Turning to `Cc1cc(Cn2cnc3c2C[C@@H](C(=O)O)N(C(=O)C(c2ccccc2)c2ccccc2)C3)ccc1N(C)C` [PD123319], the PAX2 expression increase in the experiment with DU145 [4] (DU145, 5 uM PD123319, 48 hours) was 7 fold; with DU145 [4] (DU145, 5 uM PD123319, 96 hours) it was 8 fold.
As to “AngII: Angiotensin II, major regulator of blood pressure, potent mitogen, binds AT1R and AT2R (DRVYIHPF)”, the “decrease in DEFB1 expression compared to untreated hPrEC” value with HPrEC (72 hours) worked out at 35%; in the experiment on HPrEC (96 hours) it was 50%. Further, the “increase in PAX2 expression compared to untreated hPrEC” value in the experiment with HPrEC (72 hours) stood at 66%; with HPrEC (96 hours), 79%. The DEFB1 expression result in the experiment on HPrEC (setting [6]) is “reduced significantly”. In the experiment on HPrEC (setting [6]), the PAX2 expression entry is reported as “dramatic increases in PAX2 to levels similar to PC3 prostate cancer cells”. Besides, the “PAX2 expression as % of PAX2 levels in PC3” value with HPrEC (72 hours) was 77%; in the experiment with HPrEC (96 hours), 89%. Besides, the phospho-JNK protein levels entry in the experiment with DU145 [2] is given as “increased phosphor-JNK protein levels”. For the same compound, in the experiment with DU145 [2] (DU145, AngII, 30 min to 48 hour (FIG. 19)), the “PAX2 expression over time” value was “increased as early as 4 hours and persisted until 48 hours; also recorded: progressively increased over time”. Moreover, the PAX2 expression increase in the experiment on DU145 [4] (DU145, 5 μM AngII, 72 hours (FIG. 21 legend)) was 2 fold; with DU145 [4] (DU145, 10 μM AngII, 72 hours (FIG. 21 legend)), greater than 3 fold. For the same compound, the increase in proliferation with DU145 [5] (DU145, 5 μM AngII) is recorded as 2 fold; with DU145 [5] (DU145, 10 μM AngII) it was greater than 3 fold. Besides, the “increase in proliferation rate” value with DU145 [5] (DU145, AngII 5 or 10 uM) is given as “two- to three-fold increase”.
